Results from patent publication US4401660A, “Ester derivatives of 5-O-mycaminosyl tylonolide and method of using same” (Eli Lilly and Company, priority 1981, dated 1983).
Where two headings read alike, the source gives them in different places.

Tests used:
[1] = system: Streptococcus Group D X66; test: MIC, standard agar-dilution assay (Table II); format: cell-based; design: unit not given here
Experimental: (§1) The MIC's in Table II were determined by standard agar-dilution assays. The MIC's in Table III were obtained using a conventional broth-dilution microtiter test.

[2] = system: Staphylococcus epidermidis EPI1; test: MIC, standard agar-dilution assay (Table II); format: cell-based; design: unit not given here
Experimental: as §1

[3] = system: Streptococcus pyogenes C203; test: MIC, standard agar-dilution assay (Table II); format: cell-based; design: unit not given here
Experimental: as §1

[4] = system: Staphylococcus aureus S13E; test: MIC, standard agar-dilution assay (Table II); format: cell-based; design: unit not given here
Experimental: as §1

[5] = system: Staphylococcus aureus X1.1; test: MIC, standard agar-dilution assay (Table II); format: cell-based; design: unit not given here
Experimental: as §1

[6] = system: Staphylococcus epidermidis EPI2; test: MIC, standard agar-dilution assay (Table II); format: cell-based; design: unit not given here
Experimental: as §1

[7] = system: Streptococcus Group D 9960; test: MIC, standard agar-dilution assay (Table II); format: cell-based; design: unit not given here
Experimental: as §1

[8] = system: Haemophilus influenzae R252; test: MIC, standard agar-dilution assay (Table II); format: cell-based; design: unit not given here; conditions: Haemophilus influenzae R252, ampicillin-resistant strain
Experimental: as §1

[9] = system: Haemophilus influenzae Holt; test: MIC, standard agar-dilution assay (Table II); format: cell-based; design: unit not given here; conditions: ampicillin-sensitive strain
Experimental: as §1

[10] = system: Staphylococcus aureus X400; test: MIC, standard agar-dilution assay (Table II); format: cell-based; design: unit not given here; conditions: Staphylococcus aureus X400, methicillin-resistant strain
Experimental: as §1

[11] = system: Staphylococcus aureus V41; test: MIC, standard agar-dilution assay (Table II); format: cell-based; design: unit not given here; conditions: Staphylococcus aureus V41, penicillin-resistant strain
Experimental: as §1

[12] = system: Streptococcus pneumoniae Park I; test: MIC, standard agar-dilution assay (Table II); format: cell-based; design: unit not given here
Experimental: as §1

[13] = system: Pasteurella multocida; test: Treatment of Pasteurella infections in chicks (Table V); format: in vivo, one-day-old chicks; conditions: 30 mg/kg by subcutaneous injection one and four hours post challenge; for mortality at 30 mg/kg: Pasteurella multocida, sc, 4 h, read-out: Deaths in Treated Chicks/Number Treated (converted)
How it was run: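 Dosing was 30 mg/kg by subcutaneous injection, one and four hours after challenge. Day-old chicks received 0.1 ml of a 10^-3 dilution of a 20-hour tryptose broth culture of avian P. multocida subcutaneously. Nonmedicated infected chicks served as controls, ten per group.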

[14] = system: Pasteurella haemolytica 41D; test: MIC, broth-dilution microtiter test (Table III); format: cell-based; design: unit not given here
Experimental: as §1

[15] = system: Staphylococcus aureus; test: MIC, broth-dilution microtiter test (Table III); format: cell-based; design: unit not given here
Experimental: as §1

[16] = system: Pasteurella multocida 17E; test: MIC, broth-dilution microtiter test (Table III); format: cell-based; design: unit not given here; conditions: bovine isolate
Experimental: as §1

[17] = system: Pasteurella multocida 60A; test: MIC, broth-dilution microtiter test (Table III); format: cell-based; design: unit not given here; conditions: avian isolate
Experimental: as §1

[18] = system: Pasteurella haemolytica 22C; test: MIC, broth-dilution microtiter test (Table III); format: cell-based; design: unit not given here
Experimental: as §1

[19] = system: Mycoplasma synoviae; test: MIC, broth-dilution microtiter test (Table III); format: cell-based; design: unit not given here
Experimental: as §1

[20] = system: Mycoplasma hyorhinis; test: MIC, broth-dilution microtiter test (Table III); format: cell-based; design: unit not given here
Experimental: as §1

[21] = system: Mycoplasma gallisepticum; test: MIC, broth-dilution microtiter test (Table III); format: cell-based; design: unit not given here
Experimental: as §1

[22] = system: Streptococcus sp. 80; test: MIC, broth-dilution microtiter test (Table III); format: cell-based; design: unit not given here
Experimental: as §1

[23] = system: Pasteurella multocida 40G; test: MIC, broth-dilution microtiter test (Table III); format: cell-based; design: unit not given here
Experimental: as §1

[24] = system: Pasteurella haemolytica 23C; test: MIC, broth-dilution microtiter test (Table III); format: cell-based; design: unit not given here
Experimental: as §1

[25] = system: Pasteurella multocida 22A; test: MIC, broth-dilution microtiter test (Table III); format: cell-based; design: unit not given here
Experimental: as §1

[26] = system: Pasteurella multocida 68C; test: MIC, broth-dilution microtiter test (Table III); format: cell-based; design: unit not given here
Experimental: as §1

[27] = system: Streptococcus pyogenes C203; test: ED50 in mice with experimental infections (Table IV); format: in vivo; conditions: doses given 1 and 4 hours postinfection; for ED50: Streptococcus pyogenes
How it was run: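 Read-out is ED50, the mg/kg dose protecting half of infected mice; values refer to each of two doses, given 1 and 4 hours after infection.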

[28] = C203, oral, read-out: ED50, Oral
[29] = C203, sc, subcutaneous, read-out: ED50, Subcutaneous

Row | SMILES | minimal inhibitory concentration (MIC) [1] | minimal inhibitory concentration (MIC) [2] | minimal inhibitory concentration (MIC) [3] | minimal inhibitory concentration (MIC) [4] | minimal inhibitory concentration (MIC) [5] | minimal inhibitory concentration (MIC) [6] | minimal inhibitory concentration (MIC) [7] | minimal inhibitory concentration (MIC) [8] | minimal inhibitory concentration (MIC) [9] | minimal inhibitory concentration (MIC) [10] | minimal inhibitory concentration (MIC) [11] | minimal inhibitory concentration (MIC) [12] | minimal inhibitory concentration (MIC) [14] | minimal inhibitory concentration (MIC) [15] | minimal inhibitory concentration (MIC) [16] | minimal inhibitory concentration (MIC) [17] | minimal inhibitory concentration (MIC) [18] | minimal inhibitory concentration (MIC) [19] | minimal inhibitory concentration (MIC) [20] | minimal inhibitory concentration (MIC) [21] | further results
1 | CCC(=O)OCC1C=C(C)C=CC(=O)C(C)CC(CC=O)C(OC2OC(C)C(O)C(N(C)C)C2OC(C)=O)C(C)C(O)CC(=O)OC1CC (centres unmarked) [Compound 12, 2'-O-Acetyl-23-O-propionyl-OMT] | 0.5 | 0.25 | 0.25 | 0.5 | 0.5 | 0.25 | 0.5 | 8 | 2 | 0.5 | 0.5 | 0.125 | 3.12 | 0.39 | 1.56 | 1.56 | 6.25 | < 0.05 | 3.12 | < 0.05 | mortality at 30 mg/kg [13]: 0%; minimal inhibitory concentration (MIC) [22]: 0.39; minimal inhibitory concentration (MIC) [23]: 0.78; minimal inhibitory concentration (MIC) [24]: 3.12; minimal inhibitory concentration (MIC) [25]: 0.78; minimal inhibitory concentration (MIC) [26]: 1.56; ED50 [27, 28]: 150 mg/kg; ED50 [27, 29]: 8.1 mg/kg
2 | CCC1OC(=O)CC(O)C(C)C(OC2OC(C)C(OC(=O)CC(C)C)C(N(C)C)C2OC(C)=O)C(CC=O)CC(C)C(=O)C=CC(C)=CC1CO (centres unmarked) [Compound 49, 2'-O-Acetyl-4'-O-isovaleryl-OMT] | 1 | 1 | 0.25 | 2 | 1 | 2 | 1 | 1 | 1 | 4 | 2 | 0.125 | 12.5 | 3.12 | 3.12 | 3.12 | 12.5 | 0.78 | 6.25 | 1.56 | mortality at 30 mg/kg [13]: 100%; minimal inhibitory concentration (MIC) [22]: 0.39; minimal inhibitory concentration (MIC) [23]: 3.12; minimal inhibitory concentration (MIC) [24]: 12.5; minimal inhibitory concentration (MIC) [25]: 6.25; minimal inhibitory concentration (MIC) [26]: 25; ED50 [27, 28]: > 100 mg/kg; ED50 [27, 29]: > 30 mg/kg
3 | CCC1OC(=O)CC(O)C(C)C(OC2OC(C)C(O)C(N(C)C)C2OC(C)=O)C(CC=O)CC(C)C(=O)C=CC(C)=CC1CO (centres unmarked) [Compound 1, 2'-O-Acetyl-OMT] | 2 | 2 | 0.5 | 4 | 2 | 2 | 4 | 4 | 4 | 4 | 4 | 0.5 | 12.5 | 1.56 | 1.56 | 1.56 | 12.5 | 0.39 | 3.12 | 0.39 | mortality at 30 mg/kg [13]: 0%; minimal inhibitory concentration (MIC) [22]: 0.78; minimal inhibitory concentration (MIC) [23]: 6.25; minimal inhibitory concentration (MIC) [24]: 12.5; minimal inhibitory concentration (MIC) [25]: 3.12; minimal inhibitory concentration (MIC) [26]: 3.12; ED50 [27, 28]: > 150 mg/kg; ED50 [27, 29]: 6.8 mg/kg
4 | CCC1OC(=O)CC(O)C(C)C(OC2OC(C)C(O)C(N(C)C)C2O)C(CC=O)CC(C)C(=O)C=CC(C)=CC1COC(=O)C(N)c1ccccc1 (centres unmarked) [Compound 57] | 0.5 | 0.5 | 0.125 | 0.5 | 0.5 | 1 | 0.5 | 2 | 2 | 1 | 0.5 | 0.03 | 6.25 | 3.12 | 6.25 | 3.12 | 6.25 | 0.39 | 6.25 | 0.195 | Deaths in Treated Chicks/Number Treated [13]: 0/10; minimal inhibitory concentration (MIC) [22]: 0.39; minimal inhibitory concentration (MIC) [23]: 3.12; minimal inhibitory concentration (MIC) [24]: 6.25; minimal inhibitory concentration (MIC) [25]: 3.12; minimal inhibitory concentration (MIC) [26]: 3.12; ED50, Oral ([27]; oral): 91 mg/kg × 2; ED50, Subcutaneous ([27]; subcutaneous): 2.6 mg/kg × 2
5 | CCC1OC(=O)CC(O)C(C)C(OC2OC(C)C(O)C(N(C)C)C2O)C(CC=O)CC(C)C(=O)C=CC(C)=CC1COC(=O)Cc1ccccc1 (centres unmarked) [Compound 29, 23-O-Phenylacetyl-OMT] | 0.125 | 0.125 | 0.06 | 0.125 | 0.125 | 0.25 | 0.125 | 1 | 0.5 | 0.125 | 0.125 | 0.03 | 3.12 | 0.097 | 1.56 | 0.78 | 3.12 | 0.05 | 0.195 | 0.05 | mortality at 30 mg/kg [13]: 0%; minimal inhibitory concentration (MIC) [22]: 0.05; minimal inhibitory concentration (MIC) [23]: 1.56; minimal inhibitory concentration (MIC) [24]: 3.12; minimal inhibitory concentration (MIC) [25]: 1.56; minimal inhibitory concentration (MIC) [26]: 1.56; ED50 [27, 28]: > 100 mg/kg; ED50 [27, 29]: 5 mg/kg
